Reference: a melting point compilation (Tetko et al.; mined from patent text by program, amines drawn as free bases though some values may be those of a salt)

Compared with `O=C(NCCN1CCCC1)c1ccc(=O)n(Cc2ccc(-c3ccccc3)cc2)c1`, `O=C(Nc1ccc(OCCN2CCOCC2)c2ccccc12)c1cccc(-c2cccnc2)c1` is lower in melting point: 142 to 152 °C for the first, 77 to 78 °C for the second.

First: CC(=O)N1CCc2ccc(C(=O)CCCCl)cc2CC1
Second: O=C(O)Cc1ccc2c(c1)C(=O)CC2
The melting point of the first is lower: 103 to 106 °C for the first, 133 to 135 °C for the second.

First: COc1nc2ccccc2nc1N(C)C(=O)N1CCN(c2cc(C)cc(C)c2)CC1
Second: CCOCCn1c(N2CCCN(CCC3(c4ccc(OC)c(OC)c4)CCN(C(=O)c4cc(OC)c(OC)c(OC)c4)C3)CC2)nc2ccccc21 (centres undefined)
The melting point of the first is higher: 142 to 144 °C for the first, 90 to 100 °C for the second.

First: CC(=NOc1ccc(Cl)cc1)c1ccc(C(F)(F)F)cc1NS(=O)(=O)C(F)(F)F
Second: CCOC(=O)N=c1ccc(C)cn1Cc1cccc(C(F)(F)F)c1
The melting point of the first is lower: 89 to 90 °C for the first, 121 °C for the second.

First: Cn1cc(C(=O)O)c([N+](=O)[O-])n1
Second: COc1cc(C(=O)C(=O)O)cc([N+](=O)[O-])c1O
The melting point of the first is higher: 185 to 187 °C for the first, 165 to 167 °C for the second.

First: CC1(C)CC(=O)C2=C(C1)NC1=C(C(=O)CC(C)(C)C1)C2c1cccc(Oc2ccncc2)c1
Second: COc1cc2c(c3c1OC(C)(C)C3)C(c1cccc(C(=O)NCC(N)=O)c1)=NC(C)(C)C2
The melting point of the first is higher: 186 to 188 °C for the first, 141 to 142 °C for the second.

First: COc1cc(OC)nc(C2(OC)OC(=O)c3c(Cl)cccc32)n1 (centres undefined)
Second: COC(=O)C1CC(c2ccc(OC)c(OC)c2)=NO1 (centres undefined)
The melting point of the first is higher: 180 to 183 °C for the first, 106 to 108 °C for the second.

Compared with `Brc1cc(Br)cc(Cc2cccnc2)c1`, `COc1ccc(N)cc1-c1nc(C)c(-c2cccnc2)[nH]1` is higher in melting point: 70 to 72 °C for the first, 172 to 173 °C for the second.

First: COC(=O)c1ccc(-c2nc3c(OC)cccc3s2)cc1
Second: COc1ccc2nc(-c3ccc(N)c(I)c3)sc2c1
The melting point of the first is lower: 165 to 167 °C for the first, 179 to 181 °C for the second.

First: COc1ncncc1C1c2ccccc2OCOc2cc(F)ccc21 (centres undefined)
Second: COc1cc(O)ccc1-c1cnc2cnc(-c3ccc(O)cc3)nc2c1
The melting point of the first is lower: 144 to 148 °C for the first, 207 to 208 °C for the second.

First: ClC12CC3CC(CC(C3)C1=C1C3CC4CC(C3)CC1C4)C2
Second: CNC[C@H]1CC[C@H](c2nc3ccccc3[nH]2)CC1
The melting point of the first is lower: 142 to 143 °C for the first, 232 to 235 °C for the second.

First: O=C(OCc1ccccc1)C(C(=O)OCc1ccccc1)n1cccc1C(=O)C(Cl)(Cl)Cl
Second: O=C(NC(Cc1ccccc1)C(=O)O)OCc1ccc(C#Cc2ccccc2)cc1 (centres undefined)
The melting point of the first is lower: 74 to 76 °C for the first, 172 to 173 °C for the second.

`O=C(O)CCc1oc(-n2ccnc2CO)nc1-c1ccc(Cl)cc1` and `CCCCc1nc(C(O)CC)c(C(N)=O)n1Cc1ccc(-c2ccccc2C(=O)O)cc1` (centres undefined) cannot be ordered by melting point: 171 to 173 °C for the first, over 120 °C for the second.

First: CC(NC(=O)c1c(Cl)ccnc1Cl)c1ncc(C(F)(F)F)cc1Cl (single isomer, unassigned; (+))
Second: N#Cc1[nH]c(-c2c(Cl)cc(C(F)(F)F)cc2Cl)nc1Br
The melting point of the first is lower: 110 to 111 °C for the first, 270 to 272 °C for the second.

First: CCONC(=O)c1cc(NCC2CCN(Cc3ccccc3)CC2)ccn1
Second: CSc1cc2c(cc1C(F)(F)F)N(C(=O)Nc1cccc(C(=O)NC3CCN(Cc4ccccc4)C3)c1)CC2 (centres undefined)
The melting point of the first is lower: 125 to 130 °C for the first, 174 to 175 °C for the second.

First: CCCOCCOc1ccc(Oc2ccc3c(c2)C=C(C(=O)O)CCS3(=O)=O)cc1OCC
Second: O=C(O)c1cc(OCCCc2ccccc2)cc(OCCCc2ccccc2)c1
The melting point of the first is higher: 116 to 118 °C for the first, 107 to 109 °C for the second.

First: c1ccc2c(c1)CCc1cc(C3CO3)ccc1-2 (centres undefined)
Second: CS(=O)(=O)c1ccc(C2=C(c3ccccc3)CCC2)cc1
The melting point of the first is lower: 65 to 66 °C for the first, 136 to 137 °C for the second.

First: CSc1nn2c(=O)[nH]c(C)nc2c1S(=O)(=O)c1ccccc1
Second: Cc1[nH]c(-c2ccccc2)nc1C(O)C(C)C (centres undefined)
The melting point of the first is higher: over 300 °C for the first, 214 °C for the second.

First: CS(=O)(=O)c1ccc(C2=C(c3ccccc3)C(=O)c3ccccc32)cc1
Second: Nc1nc(-c2ccc(Cl)cc2C(=O)c2ccccc2)c(CN2C(=O)c3ccccc3C2=O)s1
The melting point of the first is lower: 167 to 168 °C for the first, 253 to 255 °C for the second.

First: ON=C(Cn1ccnc1)c1ccc(Cl)cc1Cl
Second: Clc1ccc(CCC(Cn2ccnc2)OCc2ccc(Cl)c(Cl)c2)cc1 (centres undefined)
The melting point of the first is higher: 205 to 206 °C for the first, 87.5 to 89.5 °C for the second.

Going from `CC(C)(C)C(=O)C(O)NC(=O)c1ccc(Cl)cc1` (centres undefined) to `CC(C)(C)C1=NN(c2ccc(C(=O)O)cc2)C(c2cccc(F)c2)C1` (centres undefined), the melting point rises from 130 °C to 218 °C.

Compared with `CCc1cc(Cl)c(NN)c(Cl)c1`, `CC(C)(C)COC(=O)c1cc(Cl)c(F)c(Cl)c1` is higher in melting point: 48 to 50 °C for the first, 96 to 98 °C for the second.

Compared with `O=Cc1c(O)cc(O)cc1CCl`, `Cc1cc(C#N)c(O)c(C(=O)O)c1` is higher in melting point: 164 to 166 °C for the first, 213 to 214 °C for the second.

First: COC(=O)C(CNC(C)=O)C1CCC(C(C)(C)C)CC1 (centres undefined)
Second: CC(C)(C)OC(=O)N1CCN(C(=O)c2ccncc2)CC1
The melting point of the first is lower: 73 to 75 °C for the first, 139 to 140 °C for the second.

First: FC(F)(F)c1cc(-c2ccc(Br)cc2)nc2c(-c3ccncc3)cnn12
Second: O=c1ccc(O)nn1-c1ccc(OC(F)(F)F)cc1
The melting point of the first is higher: 289 °C for the first, 243 °C for the second.

First: CC1CNC(=Nc2ccccc2N2CCOCC2)N1 (centres undefined)
Second: O=c1c2c(oc3cc(OCCN4CCOCC4)ccc13)C(=Cc1ccccc1)CC2
The melting point of the first is higher: 173 to 174 °C for the first, 167 to 169 °C for the second.

Compared with `CSc1cc(C)nc(SC)c1NC(=O)CCCCCSc1nc2ccccc2s1`, `CCCCCCC(C)Oc1ccc(-c2ccc(O)cc2)cc1F` (centres undefined) is lower in melting point: 123 to 125 °C for the first, 65.2 to 66.7 °C for the second.

First: CCC1=C(C(=O)Nc2ccc(Cl)c(C(=O)OC(C)C)c2)SCCO1
Second: CC(=O)SCC(Cc1ccc(C)cc1)C(=O)Nc1cccc(C(=O)O)c1 (centres undefined)
The melting point of the first is lower: 90 to 92 °C for the first, 174 to 175 °C for the second.

Compared with `O=C(C=Cc1ccc(F)cc1)C(c1ccccc1)c1ccccc1`, `CCOC(=O)c1ccc(N(CC)CCc2ccccc2OCc2ccccc2)cc1` is lower in melting point: 122 to 124 °C for the first, 76 °C for the second.

Compared with `Cc1ccc(NCCOS(C)(=O)=O)c([N+](=O)[O-])c1`, `COc1sc(S(=O)(=O)C[N+](=O)[O-])cc1Br` is higher in melting point: 65 to 67 °C for the first, 120 to 121 °C for the second.

Compared with `CN1C(=O)N(c2cc(Cl)nc(Cl)c2)C(=O)/C1=C\c1ccc(C#N)cc1`, `COc1cc2c(cc1OC)C(=O)C(=CC=Cc1ccc(N(C)C)cc1)C2` is lower in melting point: 230 °C for the first, 210 to 213 °C for the second.

First: O=c1oc(CCc2ccccc2)cc(O)c1SCc1ccccc1
Second: Cc1c(OCc2ccccc2)c(=O)ccn1CCC(=O)O
The melting point of the first is higher: 164 to 166 °C for the first, 81 to 83 °C for the second.

First: CN(C)c1cc(C(=O)CS(C)(=O)=O)cc(N(C)C)c1
Second: CCCCOc1ccc2c(c1)C(N(C)S(C)(=O)=O)C(O)C(C)(C)O2 (centres undefined)
The melting point of the first is higher: 151 to 153 °C for the first, 138 to 140 °C for the second.

Compared with `c1ccc2c(Sc3c4ccccc4cc4ccccc34)c3ccccc3cc2c1`, `O=C1CCC(c2ccccc2)(c2ccccc2)C2CN(C(Cc3ccccc3)=NCc3cccc4ccccc34)CC12` (centres undefined) is lower in melting point: 257 °C for the first, 192 °C for the second.

First: COc1c(F)cc2c(c1F)CC(n1cc[nH]c1=S)CC2 (centres undefined)
Second: CC[C@H]1CN(c2c(F)cc3c(=O)c(C(=O)O)cn4c3c2OC[C@@H]4C)C[C@H]1NC
The melting point of the first is higher: 228 to 230 °C for the first, 211 to 213 °C for the second.

Compared with `C=CC[C@@](O)(C(=O)O)c1ccccc1`, `O=C/C=C/c1cc2ccccc2[nH]1` is higher in melting point: 132 °C for the first, 203 to 204 °C for the second.

First: COc1ccc(-c2cnc(S(C)(=O)=O)nc2)cc1OC1CCCC1
Second: Cc1ncc(C(O)=S)cc1OC1CCCC1
The melting point of the first is higher: 188 to 190 °C for the first, 177 to 178 °C for the second.

First: CCN(CC)C(=O)n1cnc(SCC2CC2)n1
Second: COCc1noc(N2CCC([C@H]3C[C@H]3CCOc3ccc(S(C)(=O)=O)cn3)CC2)n1
The melting point of the first is lower: 51 to 52 °C for the first, 68 to 70 °C for the second.

First: COc1nccc2c(=O)n(C)c(-c3ccc(OC4CCN(C5CCC5)CC4)cc3)nc12
Second: Cc1[nH]c2ccccc2c1CCCN1CCC(c2noc3cc(F)ccc23)CC1
The melting point of the first is lower: 178 to 180 °C for the first, 208 to 210 °C for the second.

First: CC(C)n1nc(-c2sc(C(=O)NCc3ccccn3)nc2-c2ccccc2F)ccc1=O
Second: CC(=O)N1CCC(O)(Cn2nc(-c3c(-c4ccccc4)nn4ccccc34)ccc2=O)CC1
The melting point of the first is higher: 190 to 191 °C for the first, 163 to 165 °C for the second.

First: CCCCCCCCCN(CCC)CCC(O)(P(=O)(O)O)P(=O)(O)O
Second: CCCCCCC(C)(C)c1ccc(C2CCCC(=O)C2)c(O)c1 (centres undefined)
The melting point of the first is lower: 45 to 47 °C for the first, 87 °C for the second.

Compared with `CN(Cc1cccs1)C(=O)C1(c2ccc(F)cc2)CCCC1`, `OC(Cc1ccc(F)cc1)(Cn1cncn1)C1(Cl)CC1` (centres undefined) is higher in melting point: 72 to 75 °C for the first, 111 °C for the second.

First: O=C(O)Cc1ccc(NC(=O)C(Cn2ccnc2)NS(=O)(=O)c2ccc(F)cc2)cc1 (racemic)
Second: CCCCNS(=O)(=O)c1cccc(NC(=O)NS(=O)(=O)c2ccc(C)cc2)c1
The melting point of the first is higher: 162 to 165 °C for the first, 153 °C for the second.

Compared with `CCC(CC)Oc1nc(C)nc(Nc2c(C)cc(C)cc2C)c1C(=O)O`, `Cc1cc2[nH]c(=O)c(C(=O)O)c(-c3ccccc3C)c2cc1C` is higher in melting point: 118 to 120 °C for the first, 236 to 237 °C for the second.

First: COc1ccc(-c2cc(-c3ccccc3)[nH]c2C(=O)NCc2ccc(C(=O)NO)cc2)cc1OC
Second: O=C(NCCCCCNC(=O)c1ccc2c(c1)OCO2)c1ccc2c(c1)OCO2
The melting point of the first is lower: 134 to 136 °C for the first, 158 to 160 °C for the second.

First: CO[C@H](C(=O)O)c1cccc([N+](=O)[O-])c1
Second: Cn1cc(-c2ccc(C(=O)O)cn2)cn1
The melting point of the first is lower: 112 °C for the first, 262 to 264 °C for the second.

First: O=[N+]([O-])c1cccc2c1C1OC1CC2 (centres undefined)
Second: COc1cccc(C=CC(=O)N2CCNCC2)c1
The melting point of the first is lower: 67 °C for the first, 84 to 86 °C for the second.

First: CSc1cc(CF)nc(N)n1
Second: Cc1cc(C)nc(NCCN(C(C)C)C(C)C)n1
The melting point of the first is higher: 95 to 97 °C for the first, 79.5 to 82 °C for the second.

First: CC(/C=C/c1c(C)sc(C)c1C)=C(F)\C=C\C(C)=C\C=O
Second: C=C(C)COc1ccc(C(=O)C=Cc2ccc(Br)cc2)c(O)c1
The melting point of the first is higher: 129 to 131 °C for the first, 121 to 122 °C for the second.

First: O=c1[nH]c2cc(Cl)c(Cl)cc2n1[C@@H]1C[C@H](CO)[C@@H](O)[C@H]1O
Second: O=c1oc(=O)n(Cc2ccc(F)cc2)c2ccc(F)cc12
The melting point of the first is higher: 219 to 220 °C for the first, 107 °C for the second.

Compared with `NC(=O)c1[nH]c2ccc(Cl)cc2c1S(=O)(=O)c1ccccn1`, `CCOC(=O)N1CCn2c(nc(-c3ccncn3)cc2=O)C(NC(=O)c2ccccn2)C1` (racemic) is higher in melting point: 244 to 246 °C for the first, 250 to 252 °C for the second.

First: CCOc1nccnn1
Second: COc1c(C=O)c(=O)n(C)c(=O)n1C
The melting point of the first is lower: 95 to 99 °C for the first, 105 to 107 °C for the second.
